{
  "source": "patent US7795290B2",
  "about": "(Genentech, Inc., priority 2004, dated 2010)",
  "data": [
    {"target": "T1, AKT1 (Homo sapiens, UniProt P31749)", "T1 construct": "purchased Upstate 14-276", "T1 sequence (P31749 whole entry)": "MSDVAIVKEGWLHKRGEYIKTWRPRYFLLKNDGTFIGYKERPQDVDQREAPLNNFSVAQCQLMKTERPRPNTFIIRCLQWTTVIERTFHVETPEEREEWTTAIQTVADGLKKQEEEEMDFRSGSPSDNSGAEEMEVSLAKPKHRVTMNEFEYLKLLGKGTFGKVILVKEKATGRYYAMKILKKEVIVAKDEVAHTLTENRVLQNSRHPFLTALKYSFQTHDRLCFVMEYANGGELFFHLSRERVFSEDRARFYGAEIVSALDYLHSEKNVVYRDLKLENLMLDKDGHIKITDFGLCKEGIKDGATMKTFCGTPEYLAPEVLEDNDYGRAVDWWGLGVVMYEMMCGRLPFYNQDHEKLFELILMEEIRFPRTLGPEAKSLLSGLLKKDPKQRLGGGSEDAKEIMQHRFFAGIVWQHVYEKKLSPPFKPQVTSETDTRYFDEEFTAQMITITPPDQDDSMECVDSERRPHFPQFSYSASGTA", "assay": "HTS ATP-utilizing enzyme assay, off-chip mobility-shift (Caliper HTS 250)", "type": "biochemical", "settings": "kinase named = inhibitory activity/selectivity; test compound 10 μM; active = greater than three-sigma from mean", "method_in_brief": "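AKT1 activity was measured by off-chip mobility shift (Caliper HTS 250) as the ratio of peptide substrate to phosphorylated product. Test compound was at 10 μM, with 2.5 h incubation at 20–22° C. EDTA wells served as 100% control and DMSO wells as 0%. Hits were called at three-sigma limits.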", "values": [
      {"smiles": "COC(=O)C1CCCN1C(=O)CCCN(C(=O)c1cccs1)c1nc(-c2cc3ccccc3o2)cs1", "note": "(stereo not drawn) [methyl 1-(4-(N-(4-(benzofuran-2-yl)thiazol-2-yl)thiophene-2-carboxamido)butanoyl)pyrrolidine-2-carboxylate]", "Activity": "AKT1"},
      {"smiles": "O=C1CCCN1CCCN(C(=O)c1ccco1)c1nc(-c2cc3ccccc3o2)cs1", "note": "[N-(4-(benzofuran-2-yl)thiazol-2-yl)-N-(3-(2-oxopyrrolidin-1-yl)propyl)furan-2-carboxamide]", "Activity": "AKT1"},
      {"smiles": "O=C(CCN(C(=O)c1cccs1)c1nc(-c2cc3ccccc3o2)cs1)N1CCC(O)C1", "note": "(stereo not drawn) [N-(4-(benzofuran-2-yl)thiazol-2-yl)-N-(3-(3-hydroxypyrrolidin-1-yl)-3-oxopropyl)thiophene-2-carboxamide]", "Activity": "AKT1"},
      {"smiles": "COC(=O)C1CCCCN1CCCN(C(=O)c1cccs1)c1nc(-c2cc3ccccc3o2)cs1", "note": "(stereo not drawn) [methyl 1-(3-(N-(4-(benzofuran-2-yl)thiazol-2-yl)thiophene-2-carboxamido)propyl)piperidine-2-carboxylate]", "Activity": "AKT1"},
      {"smiles": "O=C(c1cccs1)N(CCCN1CCOCC1)c1nc(-c2ccccn2)cs1", "note": "[N-(3-morpholinopropyl)-N-(4-(pyridin-2-yl)thiazol-2-yl)thiophene-2-carboxamide]", "Activity": "AKT1"},
      {"smiles": "O=C(C1CCCO1)N1CCN(CCCN(C(=O)c2cccs2)c2nc(-c3cc4ccccc4o3)cs2)CC1", "note": "(stereo not drawn) [N-(4-(benzofuran-2-yl)thiazol-2-yl)-N-(3-(4-(tetrahydrofuran-2-carbonyl)piperazin-1-yl)propyl)thiophene-2-carboxamide]", "Activity": "AKT1"},
      {"smiles": "COc1ccc(OC)c(-c2csc(N(CCCN3CCCCC3)C(=O)c3ccccc3)n2)c1", "note": "[N-(4-(2,5-dimethoxyphenyl)thiazol-2-yl)-N-(3-(piperidin-1-yl)propyl)benzamide]", "Activity": "AKT1"},
      {"smiles": "NC(=O)CNC(=O)CCCN(C(=O)c1cccs1)c1nc(-c2cc3ccccc3o2)cs1", "note": "[N-(4-(2-amino-2-oxoethylamino)-4-oxobutyl)-N-(4-(benzofuran-2-yl)thiazol-2-yl)thiophene-2-carboxamide]", "Activity": "AKT1"},
      {"smiles": "O=C(c1cccs1)N(CCCN1CCOCC1)c1nc(-c2ccc(-c3ccccc3)cc2)cs1", "note": "[N-(4-(biphenyl-4-yl)thiazol-2-yl)-N-(3-morpholinopropyl)thiophene-2-carboxamide]", "Activity": "AKT1"},
      {"smiles": "COc1ccc(OC)c(-c2csc(N(CCCN3CCCC3)C(=O)c3ccccc3)n2)c1", "note": "[N-(4-(2,5-dimethoxyphenyl)thiazol-2-yl)-N-(3-(pyrrolidin-1-yl)propyl)benzamide]", "Activity": "AKT1"},
      {"smiles": "COc1ccc(-c2csc(N(CCCN3CCOCC3)C(=O)C3=CCCC3)n2)cc1", "note": "[N-(4-(4-methoxyphenyl)thiazol-2-yl)-N-(3-morpholinopropyl)cyclopent-1-enecarboxamide]", "Activity": "AKT1"},
      {"smiles": "O=C(CCN(C(=O)c1cccs1)c1nc(-c2cc3ccccc3o2)cs1)N1CCOCC1", "note": "[N-(4-(benzofuran-2-yl)thiazol-2-yl)-N-(3-morpholino-3-oxopropyl)thiophene-2-carboxamide]", "Activity": "AKT1"},
      {"smiles": "O=C(O)c1ccc(-c2csc(N(CCCN3CCOCC3)C(=O)c3cccs3)n2)cc1", "note": "[4-(2-(N-(3-morpholinopropyl)thiophene-2-carboxamido)thiazol-4-yl)benzoic acid]", "Activity": "AKT1"},
      {"smiles": "NC(=O)C1CCN(C(=O)CCCN(C(=O)c2cccs2)c2nc(-c3cc4ccccc4o3)cs2)CC1", "note": "[1-(4-(N-(4-(benzofuran-2-yl)thiazol-2-yl)thiophene-2-carboxamido)butanoyl)piperidine-4-carboxamide]", "Activity": "AKT1"},
      {"smiles": "CN1CCN(CCCN(C(=O)c2ccco2)c2nc(-c3cc(-c4ccccc4)no3)cs2)CC1", "note": "[N-(3-(4-methylpiperazin-1-yl)propyl)-N-(4-(3-phenylisoxazol-5-yl)thiazol-2-yl)furan-2-carboxamide]", "Activity": "AKT1"},
      {"smiles": "O=C(CCN(C(=O)c1cccs1)c1nc(-c2cc3ccccc3o2)cs1)N1Cc2ccccc2C1", "note": "[N-(4-(benzofuran-2-yl)thiazol-2-yl)-N-(3-(isoindolin-2-yl)-3-oxopropyl)thiophene-2-carboxamide]", "Activity": "AKT1"},
      {"smiles": "O=C(c1cccs1)N(CCCN1CCOCC1)c1nc(-c2ccc(F)c(F)c2)cs1", "note": "[N-(4-(3,4-difluorophenyl)thiazol-2-yl)-N-(3-morpholinopropyl)thiophene-2-carboxamide]", "Activity": "AKT1"},
      {"smiles": "COc1ccc(-c2csc(N(CCCN3CCOCC3)C(=O)c3sccc3C)n2)cc1", "note": "[N-(4-(4-methoxyphenyl)thiazol-2-yl)-3-methyl-N-(3-morpholinopropyl)thiophene-2-carboxamide]", "Activity": "AKT1"},
      {"smiles": "NC(=O)C1CCCN1C(=O)CCN(C(=O)c1cccs1)c1nc(-c2cc3ccccc3o2)cs1", "note": "(stereo not drawn) [1-(3-(N-(4-(benzofuran-2-yl)thiazol-2-yl)thiophene-2-carboxamido)propanoyl)pyrrolidine-2-carboxamide]", "Activity": "AKT1"},
      {"smiles": "NC(=O)c1ccc(-c2csc(N(CCCN3CCOCC3)C(=O)c3cccs3)n2)cc1", "note": "[N-(4-(4-carbamoylphenyl)thiazol-2-yl)-N-(3-morpholinopropyl)thiophene-2-carboxamide]", "Activity": "AKT1"},
      {"smiles": "O=C(c1cccs1)N(CCCC(=O)N1c2ccccc2C[C@H]1CO)c1nc(-c2cc3ccccc3o2)cs1", "note": "[(S)—N-(4-(benzofuran-2-yl)thiazol-2-yl)-N-(4-(2-(hydroxymethyl)indolin-1-yl)-4-oxobutyl)thiophene-2-carboxamide]", "Activity": "AKT1"},
      {"smiles": "O=C(c1cccs1)N(CCCN1CCOCC1)c1nc(-c2cc3cc([N+](=O)[O-])ccc3o2)cs1", "note": "[N-(3-morpholinopropyl)-N-(4-(5-nitrobenzofuran-2-yl)thiazol-2-yl)thiophene-2-carboxamide]", "Activity": "AKT1"},
      {"smiles": "O=C1CN(C(=O)CCN(C(=O)c2cccs2)c2nc(-c3cc4ccccc4o3)cs2)CCN1", "note": "[N-(4-(benzofuran-2-yl)thiazol-2-yl)-N-(3-oxo-3-(3-oxopiperazin-1-yl)propyl)thiophene-2-carboxamide]", "Activity": "AKT1"},
      {"smiles": "CC(C)(C)OC(=O)N1CCN(CCCN(C(=O)c2cccs2)c2nc(-c3cc4ccccc4o3)cs2)CC1", "note": "[tert-butyl 4-(3-(N-(4-(benzofuran-2-yl)thiazol-2-yl)thiophene-2-carboxamido)propyl)piperazine-1-carboxylate]", "Activity": "AKT1"},
      {"smiles": "COc1ccc(OC)c(-c2csc(N(CCCN3CCCCC3)C(=O)c3cccs3)n2)c1", "note": "[N-(4-(2,5-dimethoxyphenyl)thiazol-2-yl)-N-(3-(piperidin-1-yl)propyl)thiophene-2-carboxamide]", "Activity": "AKT1"},
      {"smiles": "COc1cccc(CNC(=O)c2csc(N(CCCN3CCOCC3)C(=O)c3cccs3)n2)c1", "note": "[N-(3-methoxybenzyl)-2-(N-(3-morpholinopropyl)thiophene-2-carboxamido)thiazole-4-carboxamide]", "Activity": "AKT1"},
      {"smiles": "O=C(C1CCC1)N(CCCN1CCOCC1)c1nc(-c2cc3ccccc3o2)cs1", "note": "[N-(4-(benzofuran-2-yl)thiazol-2-yl)-N-(3-morpholinopropyl)cyclobutanecarboxamide]", "Activity": "AKT1"},
      {"smiles": "CN(CCO)C(=O)CCN(C(=O)c1cccs1)c1nc(-c2cc3ccccc3o2)cs1", "note": "[N-(4-(benzofuran-2-yl)thiazol-2-yl)-N-(3-((2-hydroxyethyl)(methyl)amino)-3-oxopropyl)thiophene-2-carboxamide]", "Activity": "AKT1"},
      {"smiles": "Cc1cnc(CNC(=O)CCCN(C(=O)c2cccs2)c2nc(-c3cc4ccccc4o3)cs2)cn1", "note": "[N-(4-(benzofuran-2-yl)thiazol-2-yl)-N-(4-((5-methylpyrazin-2-yl)methylamino)-4-oxobutyl)thiophene-2-carboxamide]", "Activity": "AKT1"},
      {"smiles": "COc1ccc(-c2csc(N(CCCN3CCOCC3)C(=O)c3cccc(F)c3)n2)cc1", "note": "[3-fluoro-N-(4-(4-methoxyphenyl)thiazol-2-yl)-N-(3-morpholinopropyl)benzamide]", "Activity": "AKT1"},
      {"smiles": "COc1ccc(-c2csc(N(CCCN3CCOCC3)C(=O)c3cccn3C)n2)cc1", "note": "[N-(4-(4-methoxyphenyl)thiazol-2-yl)-1-methyl-N-(3-morpholinopropyl)-1H-pyrrole-2-carboxamide]", "Activity": "AKT1"},
      {"smiles": "COCCNC(=O)CCN(C(=O)c1cccs1)c1nc(-c2cc3ccccc3o2)cs1", "note": "[N-(4-(benzofuran-2-yl)thiazol-2-yl)-N-(3-(2-methoxyethylamino)-3-oxopropyl)thiophene-2-carboxamide]", "Activity": "AKT1"},
      {"smiles": "CNC(=O)c1ccc(-c2csc(N(CCCN3CCOCC3)C(=O)c3cccs3)n2)cc1", "note": "[N-(4-(4-(methylcarbamoyl)phenyl)thiazol-2-yl)-N-(3-morpholinopropyl)thiophene-2-carboxamide]", "Activity": "AKT1"},
      {"smiles": "COc1ccc(-c2csc(N(Cc3ccco3)C(=O)c3cccs3)n2)cc1", "note": "[N-(furan-2-ylmethyl)-N-(4-(4-methoxyphenyl)thiazol-2-yl)thiophene-2-carboxamide]", "Activity": "AKT1"},
      {"smiles": "CCOC(=O)C1CCCCN1CCCN(C(=O)c1cccs1)c1nc(-c2cc3ccccc3o2)cs1", "note": "(stereo not drawn) [ethyl 1-(3-(N-(4-(benzofuran-2-yl)thiazol-2-yl)thiophene-2-carboxamido)propyl)piperidine-2-carboxylate]", "Activity": "AKT1"},
      {"smiles": "CCN(CC)CCCN(C(=O)c1cccs1)c1nc(-c2cc3ccccc3o2)cs1", "note": "[N-(4-(benzofuran-2-yl)thiazol-2-yl)-N-(3-(diethylamino)propyl)thiophene-2-carboxamide]", "Activity": "AKT1"},
      {"smiles": "Cn1cccc1C(=O)N(CCCN1CCCC1=O)c1nc(-c2cc3ccccc3o2)cs1", "note": "[N-(4-(benzofuran-2-yl)thiazol-2-yl)-1-methyl-N-(3-(2-oxopyrrolidin-1-yl)propyl)-1H-pyrrole-2-carboxamide]", "Activity": "AKT1"},
      {"smiles": "CCOC(=O)CC(C)(C)c1csc(N(CCCN2CCOCC2)C(=O)c2cccs2)n1", "note": "[ethyl 3-methyl-3-(2-(N-(3-morpholinopropyl)thiophene-2-carboxamido)thiazol-4-yl)butanoate]", "Activity": "AKT1"},
      {"smiles": "O=C(c1cccs1)N(CCCN1CCOCC1)c1nc(C(F)(F)F)cs1", "note": "[N-(3-morpholinopropyl)-N-(4-(trifluoromethyl)thiazol-2-yl)thiophene-2-carboxamide]", "Activity": "AKT1"}
    ]}
  ]
}
